# Source: publication PMC12243099, “Thieno[2,3-b]pyridine compounds potently inhibit prostate cancer growth and motility” (Endocrine Oncology, 2025)
# What was measured:
# 22RV1 = experiment: Crystal violet proliferation assay, 22RV1; format: cell-based; conditions: Homo sapiens; 22RV1, AR positive; 72 h treatment; mean
# Method: (§1) Cells were seeded at a density of 2 × 10^4 in 96-well plates and left to adhere overnight before treatment with the inhibitors. After 72 h of treatment, cells were fixed in 2% paraformaldehyde for 1 h, washed 3× with ddH2O and left to dry. 0.04% crystal violet (dissolved in ddH2O) was added to each well and the plates incubated for 1 h. The plates were again washed 3× with ddH2O and left to dry. Crystal violet was solubilised with 10% acetic acid (1 h at room temperature with rocking) and the optical density of each well measured at 570 nm with a plate reader (CLARIOstar, BMG Labtech, Germany).
# (§2) (A) The non-tumorigenic controls PNT1A and BPH1, and prostate cancer cell lines LNCaP, C42, C42B, 22RV1, DU145 and PC3 were seeded 24 h before treatment with a dose range of the thieno[2,3-b]pyridine compounds (DJ97, DJ144, DJ145, DJ154 and DJ160). After 72 h of treatment, cells were fixed, stained with crystal violet and absorbance measured using a spectrophotometer microplate reader (FLUOstar Omega) at 490 nm. Mean ± SE of three independent repeats (six replicates for each concentration per experiment). (B) Western blotting was performed on lysates from the different cell lines and membranes probed with antibodies specific for PLCγ1, PLCγ2, AR and ⍺-tubulin. (C) PC3 cells were seeded in 10 cm plates and treated with a dose range of DJ160 for 24 h. Cells were collected and PLC activity measured, and enzymatic activity calculated. Mean of 3 repeats ± SD. TEXT PRINTED IN THE PICTURE: (C) DJ160: PLC activity (mol/min): 0.19 ± 0.005 (DJ160 (μM): 0); PLC activity (mol/min): 0.19 ± 0.005 (DJ160 (μM): 0.01); PLC activity (mol/min): 0.17 ± 0.005 (DJ160 (μM): 0.1); PLC activity (mol/min): 0.23 ± 0.004 (DJ160 (μM): 1); PLC activity (mol/min): 0.22 ± 0.010 (DJ160 (μM): 10)
# C42 = experiment: Crystal violet proliferation assay, C42; format: cell-based; conditions: C42, AR positive, 72 h treatment, mean
# Method: as §1, §2
# PNT1A = experiment: Crystal violet proliferation assay, PNT1A; format: cell-based; conditions: Homo sapiens, non-tumorigenic, 72 h treatment, mean
# Method: as §1, §2
# BPH1 = experiment: Crystal violet proliferation assay, BPH1; format: cell-based; conditions: BPH1, non-tumorigenic, 72 h treatment, mean; for IC50: Homo sapiens, BPH-1
# Method: as §1, §2
# C42B = experiment: Crystal violet proliferation assay, C42B; format: cell-based; conditions: AR positive, 72 h treatment, mean
# Method: as §1, §2
# DU145 = experiment: Crystal violet proliferation assay, DU145; format: cell-based; conditions: Homo sapiens, DU-145; DU145, AR negative; 72 h treatment; mean
# Method: as §1, §2
# LNCaP = experiment: Crystal violet proliferation assay, LNCaP; format: cell-based; conditions: AR positive, 72 h treatment, mean
# Method: as §1, §2
# PC3 = experiment: Crystal violet proliferation assay, PC3; format: cell-based; conditions: PC3, AR negative, 72 h treatment, mean
# Method: as §1, §2
# [1] = system: cultured human prostate tumours; experiment: Patient-derived tumour explants, immunohistochemistry of cleaved caspase 3; format: cell-based; conditions: explants of four patients, no/minimal apoptosis in patients 1 and 2
# Method: (§3) Explant experiments were undertaken using published methodology ([Centenera et al. 2018]). Biopsy tissue from prostate cancer patients was immediately placed in ice-cold medium straight from surgery. In the lab, tissue was dissected and seeded onto a sponge (SSP101010-32, Surgispon, Anser Medical) in 24-well plates. The explants were treated with compound 160 (100 nM) or the antiandrogen enzalutamide (10 μM) and incubated at 37°C for 48 h.
# The explants were formalin fixed and wax embedded. Immunohistochemistry was performed to investigate the expression of cleaved caspase 3 (Cell Signalling 9661S (1/200)) as a marker of apoptosis. Protein expression was detected using the REAL EnVision Detection System (Peroxidase/DAB, K500711-2, DAKO).
# Figure 7 Thieno[2,3-b]pyridine DJ160 inhibits activity in cultured human prostate tumours. Tumours were dissected into 1 mm^3 pieces then treated with the drugs (100 nM DJ160 and 10 μM enzalutamide (ENZA)) or vehicle control (DMSO, VC) and incubated for 48 h. (A) RNA was extracted and qPCR was performed to quantify the expression of PCNA, used as a marker of proliferation. (B) Samples were formalin-fixed and immunohistochemistry performed for cleaved caspase 3 and the number of cells per field counted. Example images for patient 3 are provided (20× magnification).
# PLC = PLC activity assay in treated PC3 cells; format: cell-based; conditions: 24 h; for PLC activity: mean of 3 repeats ± SD, 0 μM control 0.19 ± 0.005
# Method: PC3 cells were grown in 10 cm dishes and treated with different concentrations of DJ160 for 24 h. Cells were collected and enzymatic activity quantified using a PLC Activity Assay Kit (Sigma Aldrich), following the manufacturer’s instructions.
# as §2
# PC3 cells [2] = experiment: Fluorescent imaging: multinucleation and cell size; format: cell-based; conditions: 1 μM, 24 h, no multinucleation without inhibitors
# Method: Cells were seeded on glass coverslips and incubated overnight before treatment with the compounds. Cells were incubated for 24 h with the thieno[2,3-b]pyridines and fixed with 2% paraformaldehyde for 15 min at RT. Cells were washed 3 times with PBS and 0.1% Triton X-100 in PBS added for 10 min at RT. The washes were repeated and cells blocked with 1% BSA in 0.5% Tween for 30 min. Primary antibody (α-alpha-tubulin, clone B-5-1-2, Sigma Aldrich, USA) was diluted in the block buffer, added to the cells and incubated for 1 h. The cells were washed 3 times with PBS containing 0.5% Tween and secondary antibody applied (anti-mouse Alexa Fluor 568, Abcam, UK). […] To calculate the percentage of cells with multinucleation, ten random fields of view were imaged per slide using low magnification (10×) and the number of cells with more than 1 nucleus counted. Alterations in cell size were quantified using Fiji ([Schindelin et al. 2012]).
# Figure 5 The thieno[2,3-b]pyridine compounds promote multinucleation and lead to an increase in cell size. […] Cells were PI stained and DNA content was measured using flow cytometry. […] Confocal microscopy was performed and five random images were taken for each treatment to quantify (C) percentage multinucleation and (D) relative cell size. […]
# breast cancer cell lines = conditions: across various breast cancer cell lines; cited from earlier work
# PC3 cells [3] = experiment: Cell cycle analysis (PI staining, flow cytometry); format: cell-based; conditions: 1 μM, 24 h
# Method: Cells were seeded in 12-well plates, incubated overnight and treated with the inhibitors. The cells were incubated for 72 h before harvesting. Cells were pelleted (200 g, 5 min) and washed with PBS. The wash was removed and cells fixed with 70% EtOH, added dropwise with agitation. The cells were incubated at 4°C overnight, pelleted, washed with PBS and resuspended in PBS containing PI and RNase A, as previously described ([Brooke et al. 2011]). The percentage of cells in each phase of the cell cycle was subsequently quantified using an Accuri C6 Flow Cytometer (BD Biosciences, USA).
# Figure 3 The thieno[2,3-b]pyridine compounds promote G2/M cell cycle arrest in PC3 cells. PC3 cells were seeded at 30% confluence for 48 h and treated with 1 μM of the compounds (97, 144, 145, 154 and 160) or DMSO for (A) 24, (B) 48 and (C) 72 h. Cells were PI stained and DNA content measured using flow cytometry. The percentage of cells in each phase was calculated and representative histograms generated using the ACCURI C6 software (BD Biosciences). Data are the mean of three independent repeats.
# [4] = system: cultured human prostate tumours; experiment: Patient-derived tumour explants, qPCR of PCNA (proliferation marker); format: cell-based; conditions: explants of four patients, 100 nM DJ160, 48 h
# Method: as §3
# Explants were snap frozen until RNA was extracted using a Monarch RNA extraction kit (NEB), following disruption of frozen tissue utilising mechanical disruption and enzymatic digestion with proteinase K. Then, 2 μg of RNA was reverse transcribed using Precision Nanoscript2 RT Kit (Primer Design, UK). Changes in gene expression were measured using SYBR Green Fast Master Mix (Life Technologies, USA) and QuantStudio 7 Flex Real-Time PCR System (Applied Biosystems, USA). […]
# Figure 7 Thieno[2,3-b]pyridine DJ160 inhibits activity in cultured human prostate tumours. […] (A) RNA was extracted and qPCR was performed to quantify the expression of PCNA, used as a marker of proliferation. (B) Samples were formalin-fixed and immunohistochemistry performed for cleaved caspase 3 and the number of cells per field counted. […]
IC50 (22RV1),IC50 (DU145),"IC50 (LNCaP; Homo sapiens, 72 h)","IC50 (PC3; Homo sapiens, 72 h)",SMILES,"IC50 (C42; C4-2, 72 h)",IC50 (PNT1A),IC50 (nM) (BPH1),IC50 (BPH1),IC50 (C42B),G2/M cell cycle arrest (PC3 cells [3]),other results
499 nM,1960 nM,268 nM,673 nM,Nc1c(C(=O)Nc2cccc(Br)c2)sc2nc3c(cc12)C(=O)CCC3 [DJ145],468 nM,708 nM,μM range,4360 nM,230 nM,–,–
521 nM,660 nM,452 nM,723 nM,Nc1c(C(=O)Nc2cccc(Cl)c2)sc2nc3c(cc12)CCCC3 [DJ154],246 nM,902 nM,–,806 nM,512 nM,–,–
–,–,–,–,"CNC(=O)c1ccc(N2C(=S)N(c3ccc(C#N)c(C(F)(F)F)c3)C(=O)C2(C)C)cc1F [enzalutamide, reference compound]",–,–,–,–,–,–,"cleaved caspase 3-positive cells (apoptosis) ([1]; 10 μM enzalutamide, 48 h): increase in the percentage of cleaved caspase-positive cells in patient samples 3 and 4"
306 nM,1400 nM,482 nM,573 nM,Nc1c(C(=O)Nc2cccc(Cl)c2)sc2nc3c(cc12)C(=O)CCC3 [DJ97],334 nM,324 nM,μM range,3550 nM,333 nM,–,–
185 nM,271 nM,59.4 nM,214 nM,COc1cccc(NC(=O)c2sc3nc4c(cc3c2N)C(=O)CCC4)c1 [DJ144],187 nM,238 nM,–,443 nM,150 nM,most pronounced effect,–

SMILES,IC50 (22RV1),IC50 (DU145),"IC50 (LNCaP; Homo sapiens, 72 h)","IC50 (PC3; Homo sapiens, 72 h)","IC50 (C42; C4-2, 72 h)",IC50 (PNT1A),IC50 (nM) (BPH1),IC50 (BPH1),IC50 (C42B),G2/M cell cycle arrest (PC3 cells [3]),other results
Cc1c(Cl)cccc1NC(=O)c1sc2nc3c(cc2c1N)C(=O)CCC3 [DJ160],100 nM,83.9 nM,< 50 nM,< 50 nM,< 50 nM,82.6 nM,–,151 nM,54 nM,most pronounced effect,"PLC activity (PLC; DJ160 0.01 μM): 0.19 ± 0.005 mol/min; PLC activity (PLC; DJ160 0.1 μM): 0.17 ± 0.005 mol/min; PLC activity (PLC; DJ160 1 μM): 0.23 ± 0.004 mol/min; PLC activity (PLC; DJ160 10 μM): 0.22 ± 0.010 mol/min; effect upon pan-PLC activity (PLC; dose range): little effect; cleaved caspase 3-positive cells (apoptosis) ([1]; 100 nM DJ160, 48 h): increase in the percentage of cleaved caspase-positive cells in patient samples 3 and 4; IC50 (C42): 29 nM; percentage of cells with multinucleation (PC3 cells [2]): more than 30%; IC50 (breast cancer cell lines): > 100 nM; IC50 (LNCaP): 44.9 nM; IC50 (PC3): 46.5 nM; reduction of PCNA expression compared to untreated samples [4]: approximately 80%"
